Values of other authors in US9095515B2, “Ezetimibe compositions” (Sanovel Ilac Sanayi Ve Ticaret Anonim Sirketi, priority 2009, dated 2015).

Details: reported

- solubility in water: practically insoluble
SMILES: O=C1[C@H](CC[C@H](O)c2ccc(F)cc2)[C@@H](c2ccc(O)cc2)N1c1ccc(F)cc1 [Ezetimibe, (3R,4S)-1-(4-fluorophenyl)-3-[(3S)-3-(4-fluorophenyl)-3-hydroxypropyl]-4-(4-hydroxyphenyl)azetidin-2-one]
